# Tests used:
# [1] = target: T1, human liver Glucokinase (GK) (Homo sapiens, UniProt P35557); test: Glucokinase enzyme assay, liver GK; assay type: biochemical; conditions: for EC50: concentration that produces 50% activation above vehicle control; for activation at 50 µM: increase in GK activity above vehicle control, compound 50 μM, 12 mM glucose; for EC100%: concentration that produces 100% activation above vehicle control
# T1 construct: His6; made in house; host or cells: Escherichia coli
# T1 sequence (P35557 1-466 isoform P35557-2): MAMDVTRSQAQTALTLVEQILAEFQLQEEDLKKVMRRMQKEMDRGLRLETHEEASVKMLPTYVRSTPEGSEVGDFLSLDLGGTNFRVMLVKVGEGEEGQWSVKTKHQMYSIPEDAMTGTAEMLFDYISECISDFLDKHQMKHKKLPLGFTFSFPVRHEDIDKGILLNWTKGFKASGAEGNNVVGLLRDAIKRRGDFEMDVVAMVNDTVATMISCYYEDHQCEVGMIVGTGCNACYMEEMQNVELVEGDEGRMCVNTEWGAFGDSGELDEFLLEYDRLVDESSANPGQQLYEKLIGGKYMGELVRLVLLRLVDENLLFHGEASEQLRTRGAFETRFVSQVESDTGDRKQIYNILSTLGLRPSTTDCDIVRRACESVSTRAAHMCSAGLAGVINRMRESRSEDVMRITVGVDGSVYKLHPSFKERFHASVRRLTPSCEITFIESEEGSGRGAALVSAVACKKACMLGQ
# Description: (§1) An enzymatic Glucokinase (GK) assay using purified recombinant human liver/pancreas enzyme was used to evaluate the effects of potential small molecule modulators.
# (§2) In this assay, GK catalyzes glucose phosphorylation in the presence of ATP. The product of this reaction, glucose-6-phosphate, was then oxidized by an excess of glucose-6-phosphate dehydrogenase to produce gluconate-6-phosphate with concomitant reduction of nicotinamide adenine dinucleotide (NAD). […] Human GK (Liver/Pancreas) was expressed in Escherichia coli as a (His) 6-tagged fusion protein and was purified by metal chelate affinity chromatography. The assay was performed in a final incubation volume of 80 μl in a 96-well clear low UV absorption plates. The incubation mixture consisted of 25 mM HEPES, 2 mM MgSO4, 1 mM dithiothreotol (DTT), 1 mg/mL bovine serum albumin (BSA), 1 mM ATP, 1 mM NAD, and 12 mM glucose, 10 units per mL glucose-6-phosphate dehydrogenase, and +/−300 ng per mL GK. For determination of the affinity (Km) and Vmax, different concentrations of glucose ranging from 0.5 mM to 40 mM were used in the assay; see Grimsby, J., Sarabu, R.; Grippo, J. F.; et. al. Science 2003, 301, 370-373. Production of reduced NAD (Nicotinamide Adenine Dinucleotide) was measured as changes in absorption at 340 nm in 96-well plate reader (Envision model #2101 Multilabel Plate reader). % Activation @ 50 μM was calculated as the percentage increase in GK activity above the vehicle control with the effective concentration of the compound being 50 μM. EC50% (μM) was calculated as the effective concentration of the compound that produces 50% activation above the vehicle control, and EC100% (μM) was calculated as the effective concentration of the compound that produces 100% activation above the vehicle control.
# [2] = target: T2, human pancreas Glucokinase (GK) (Homo sapiens, UniProt P35557); test: Glucokinase enzyme assay, pancreas GK; assay type: biochemical; conditions: for EC50: concentration that produces 50% activation above vehicle control; for EC100%: concentration that produces 100% activation above vehicle control; for activation at 50 µM: increase in GK activity above vehicle control, compound 50 μM, 12 mM glucose
# T2 construct: His6; made in house; host or cells: Escherichia coli
# T2 sequence (P35557 1-465): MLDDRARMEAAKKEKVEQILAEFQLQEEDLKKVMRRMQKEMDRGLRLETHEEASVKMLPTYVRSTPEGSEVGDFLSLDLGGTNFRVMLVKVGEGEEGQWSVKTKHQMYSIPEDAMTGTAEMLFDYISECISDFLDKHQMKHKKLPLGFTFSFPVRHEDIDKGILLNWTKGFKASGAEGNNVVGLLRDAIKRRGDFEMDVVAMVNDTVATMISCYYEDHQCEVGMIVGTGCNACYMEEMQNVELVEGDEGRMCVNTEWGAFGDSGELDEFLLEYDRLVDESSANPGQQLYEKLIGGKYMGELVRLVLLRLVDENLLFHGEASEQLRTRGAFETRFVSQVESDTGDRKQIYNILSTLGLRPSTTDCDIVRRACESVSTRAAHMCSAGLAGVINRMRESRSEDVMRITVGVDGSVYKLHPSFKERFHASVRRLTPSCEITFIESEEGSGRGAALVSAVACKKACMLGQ
# Description: as §1
# as §2, with “Production of reduced NAD (Nicotinamide Adenine Dinucleotide) was measured as changes in absorption at 340 nm in 96-well plate reader (Envision model #2101 Multilabel Plate reader). % Activation @ 50 μM was calculated as the percentage increase in GK activity above the vehicle control with the effective concentration of the compound being 50 μM.” left out
SMILES,EC50 [1],activation at 50 µM [1],EC100% [1],EC50 [2],EC100% [2],activation at 50 µM [2]
"O=C(CCC1c2ccccc2C(=O)N1Cc1ccccc1)Nc1nccs1 (stereo not shown) [Compound 1, 3-(2-Benzyl-3-oxo-2,3-dihydro-1H-isoindol-1-yl)-N-thiazol-2-yl-propionamide]",15000 nM,46%,,,,
"O=C(CCC1c2ccccc2C(=O)N1Cc1ccccc1)Nc1ccccn1 (stereo not shown) [Compound 3, 3-(2-Benzyl-3-oxo-2,3-dihydro-1H-isoindol-1-yl)-N-pyridin-2-yl-propionamide]",2520 nM,,8.78 µM,,,
"O=C(NCCC1c2ccccc2C(=O)N1Cc1ccccc1)Nc1nccs1 (stereo not shown) [Compound 4, 1-[2-(2-Benzyl-3-oxo-2,3-dihydro-1H-isoindol-1-yl)-ethyl]-3-thiazol-2-yl-urea]",,15%,,,,
"COC(=O)c1ccc(NC(=O)CC[C@H]2c3c(F)cccc3C(=O)N2Cc2ccc(F)cc2)nc1 [Compound 51, (S)-6-{3-[7-Fluoro-2-(4-fluoro-benzyl)-3-oxo-2,3-dihydro-1H-isoindol-1-yl]-propionylamino}-nicotinic acid methyl ester]",,,,8.9 nM,0.082 µM,223%

# Now from value to compound:
EC50 [1],activation at 50 µM [1],EC100% [1],EC50 [2],EC100% [2],activation at 50 µM [2],SMILES
1290 nM,,8.39 µM,,,,"COC(=O)c1ccc(NC(=O)CCC2c3ccccc3C(=O)N2Cc2ccccc2)nc1 (stereo not shown) [Compound 2, 6-[3-(2-Benzyl-3-oxo-2,3-dihydro-1H-isoindol-1-yl)-propionylamino]-nicotinic acid methyl ester]"
1900 nM,138%,8 µM,2900 nM,18 µM,306%,"O=C(CCC1c2ccccc2C(=O)N1Cc1ccccc1)Nc1ccc(C(=O)O)cn1 (stereo not shown) [Compound 5, 6-[3-(2-Benzyl-3-oxo-2,3-dihydro-1H-isoindol-1-yl)-propionylamino]-nicotinic acid]"

# — patent publication US8796313B2, “Substituted dihydroisoindolones as allosteric modulators of glucokinase” (Janssen Pharmaceutica N.V., priority 2005, dated 2014)
